Consider five compounds from patent US10434142B2, “Compositions and methods of improved wound healing” (Chan Soon-Shiong Nanthealth Foundation, priority 2013, dated 2019).

Entries after “also recorded” stand apart in the source; their conditions may differ.

Assay [1] deals with human THP-1 promonocytic leukemia cell line. Nature of the assay: IL-8 production / cytokine release from THP-1 cells, TLR2 ligand with or without calcium flux agonist. The assay is classed as cell-based. The settings on record: suboptimal dose of TLR2 ligand (Pam2CSK4 / Pam2CYS) plus suboptimal dose of agonist; beyond cumulative individual responses. How it is done: (§1) For example, human promonocytic THP-1 cells were incubated in the presence or absence of a suboptimal dose of the TLR2 ligand Pam2CSK4 and compared to similarly treated cells which also received suboptimal doses of ionophore (here: A23187 and ionomycin). […] In another example, KB-LUC THP-1 cells (a THP-1-derived transfectant line harboring an NF-κB-driven luciferase expression cassette) were cultivated in the presence or absence of a suboptimal dose of the TLR2 ligand Pam2CSK4 and compared to similarly treated cells that also received suboptimal doses of various SERCA inhibitors.
Here, the ionophores A23187 and ionomycin, as well as the SERCA inhibitor thapsigargin synergize with the TLR2 ligand (Pam2CYS) in the activation of cytokine release from the human THP-1 promonocytic leukemia cell line. It should be especially noted that while the TLR2 ligand alone provided for about 5 ng/ml IL-8 response, addition of a suboptimal dose of the calcium flux agonists (e.g. 20 nM for thapsigargin, 316 nM for A23187, and 1 μM for ionomycin) produced more than 10-fold quantities of IL-8 production in the cells.

Assay [2] concerns TLR2. The assay can be described thus: IL-8 production, calcium flux agonist plus TLR2 ligand (FIGS. 2A-2E). In kind it is cell-based. The settings on record: suboptimal doses: 20 nM thapsigargin, 316 nM A23187, 1 μM ionomycin, 10 μM cyclopiazonic acid, 31.6 μM DBHQ. On the procedure:
(§2) To investigate if that observation was also true for other pattern recognition receptors, and especially for TLR and NOD receptors and other ligands, the inventors tested numerous TLR and NOD receptors and various ligands.
(§3) The doses used in this experiment were 20 nM for thapsigargin, 316 nM for A23187, 1 μM for ionomycin, 10 μM for cyclopiazonic acid, and 31.6 μM for DBHQ.
(§4) Thus, a clear pattern of adjuvant activity of calcium flux agonists on the immune response, and especially on IL-8 production and NF-κB signaling is evident where the immune response is associated with a TLR- or NOD-mediated event.

Assay [3] has as its system TLR4. Nature of the assay: IL-8 production, calcium flux agonist plus TLR4 ligand (FIGS. 2A-2E). In kind it is cell-based. The settings on record: suboptimal doses: 20 nM thapsigargin, 316 nM A23187, 1 μM ionomycin, 10 μM cyclopiazonic acid, 31.6 μM DBHQ. On the procedure:
as §2, §3, §4
(Calcium flux is commonly read through the fluorescence of an indicator in the cells.)

Assay [4] deals with TLR5. The assay can be described thus: IL-8 production, calcium flux agonist plus TLR5 ligand (FIGS. 2A-2E). The assay is classed as cell-based. Particulars: suboptimal doses: 20 nM thapsigargin, 316 nM A23187, 1 μM ionomycin, 10 μM cyclopiazonic acid, 31.6 μM DBHQ. On the procedure:
as §2, §3, §4

Assay [5] has as its system TLR9. The assay can be described thus: IL-8 production, calcium flux agonist plus TLR9 ligand (FIGS. 2A, 2B, 2E). The settings on record: suboptimal doses: 20 nM thapsigargin, 316 nM A23187, 1 μM ionomycin. The assay is classed as cell-based. On the procedure:
as §2, §3, §4

Assay [6] has as its system NOD1. Nature of the assay: IL-8 production, calcium flux agonist plus NOD1 ligand (FIGS. 2A-2E). In kind it is cell-based. Particulars: suboptimal doses: 20 nM thapsigargin, 316 nM A23187, 1 μM ionomycin, 10 μM cyclopiazonic acid, 31.6 μM DBHQ. How it is done:
as §2, §3, §4

Assay [7] concerns NOD2. The assay can be described thus: IL-8 production, calcium flux agonist plus NOD2 ligand (FIGS. 2A-2E). In kind it is cell-based. The settings on record: suboptimal doses: 20 nM thapsigargin, 316 nM A23187, 1 μM ionomycin, 10 μM cyclopiazonic acid, 31.6 μM DBHQ. How it is done: as §2, §3, §4
The subject of assay [8] is κB-LUC THP-1 cells. Nature of the assay: Activation of κB-LUC THP-1 cells by S. aureus conditioned/spent media (FIGS. 3A-3C). In kind it is cell-based, human. Particulars: for recognition of S. aureus conditioned/spent media (activation of κB-LUC THP-1 cells): suboptimal doses: thapsigargin, 316 nM A23187, 1 μM ionomycin.
Assay [9] deals with KB-LUC THP-1 cells. Nature of the assay: NF-κB-driven luciferase in KB-LUC THP-1 cells, TLR2 ligand Pam2CSK4 with or without SERCA inhibitor. The assay is classed as cell-based, human. The settings on record: suboptimal dose of Pam2CSK4 plus suboptimal dose of SERCA inhibitor; beyond cumulative individual responses. How it is done: as §1

Turning to `CNc1ccc2oc(C[C@H]3O[C@@]4(CC[C@H]3C)O[C@H]([C@H](C)C(=O)c3ccc[nH]3)[C@H](C)C[C@H]4C)nc2c1C(=O)O` [A23187], in assay [1], the “synergy with TLR2 ligand in IL-8 production / cytokine release” value is listed as “significantly increased; also recorded: synergize”. Besides, in assay [2], the “synergistic effect to augment cellular response (IL-8 production) for TLR2” value (“synergistic effect … for TLR2” for short) is reported as “synergistic effect”. The “synergistic effect to augment cellular response (IL-8 production) for TLR4” value (from here on “synergistic effect … for TLR4”) in assay [3] is “synergistic effect”. The “synergistic effect to augment cellular response (IL-8 production) for TLR5” value (from here on “synergistic effect … for TLR5”) in [4] is listed as “synergistic effect”. Moreover, in assay [5], the “synergistic effect to augment cellular response (IL-8 production) for TLR9” value (from here on “synergistic effect … for TLR9”) was “synergistic effect”. Also, in assay [6], the “synergistic effect to augment cellular response (IL-8 production) for NOD1” value (“synergistic effect … for NOD1” below) is listed as “synergistic effect”. Besides, the “synergistic effect to augment cellular response (IL-8 production) for NOD2” value (“synergistic effect … for NOD2” for short) in assay [7] is “synergistic effect”. Further, the “recognition of S. aureus conditioned/spent media (activation of κB-LUC THP-1 cells)” value in [8] was “significantly enhanced”.

For the compound `O=C(O)CN(CCOCCOCCN(CC(=O)O)CC(=O)O)CC(=O)O` [EGTA], in assay [8] (extracellular chelator added at 1 mM), the “effect on calcium flux-induced synergy” value is recorded as “inhibited”.

With `CC(C)(C)c1cc(O)c(C(C)(C)C)cc1O` [DBHQ, 2,5-di(tert-butyl) hydroquinone], the “synergistic effect … for TLR2” value in [2] is recorded as “synergistic effect”. Further, the “synergistic effect … for TLR4” value in assay [3] was “synergistic effect”. Besides, the “synergistic effect … for TLR5” value in [4] is reported as “synergistic effect”. In addition, in assay [6], the “synergistic effect … for NOD1” value is given as “synergistic effect”. Moreover, in [7], the “synergistic effect … for NOD2” value is reported as “synergistic effect”.

For the compound `C/C=C(/C)C(=O)O[C@H]1C(C)=C2[C@H]([C@@H]1OC(=O)CCCCCCC)[C@@](C)(OC(C)=O)C[C@H](OC(=O)CCC)[C@@]1(O)[C@H]2OC(=O)[C@@]1(C)O` [thapsigargin], in [1], the “synergy with TLR2 ligand in IL-8 production / cytokine release” value was “synergize”. The “amount of luciferase produced (NF-κB-driven), synergy with TLR2 ligand” value in assay [9] is on record as “significantly increased”. The “synergistic effect … for TLR2” value in assay [2] was “synergistic effect”. Moreover, the “synergistic effect … for TLR4” value in assay [3] is given as “synergistic effect”. Besides, the “synergistic effect … for TLR5” value in assay [4] is “synergistic effect”. Besides, the “synergistic effect … for TLR9” value in [5] was “synergistic effect”. In assay [6], the “synergistic effect … for NOD1” value was “synergistic effect”. In addition, the “synergistic effect … for NOD2” value in assay [7] is on record as “synergistic effect”. Moreover, the “recognition of S. aureus conditioned/spent media (activation of κB-LUC THP-1 cells)” value in [8] is on record as “significantly enhanced”.

Take `C[C@H](CCC(=O)O)C[C@H](C)C[C@H](C)C(=O)/C=C(\O)[C@H](C)C[C@H](C)C/C=C/[C@@H](C)[C@@H](O)[C@@H](C)[C@@H](O)C[C@@H]1CC[C@@](C)([C@H]2CC[C@@](C)([C@@H](C)O)O2)O1` [ionomycin]: in assay [1], the “synergy with TLR2 ligand in IL-8 production / cytokine release” value is given as “significantly increased; also recorded: synergize”. The “synergistic effect … for TLR2” value in assay [2] is listed as “synergistic effect”. The “synergistic effect … for TLR4” value in assay [3] is on record as “synergistic effect”. In addition, in assay [4], the “synergistic effect … for TLR5” value is listed as “synergistic effect”. Also, in [5], the “synergistic effect … for TLR9” value is “synergistic effect”. In assay [6], the “synergistic effect … for NOD1” value is listed as “synergistic effect”. Besides, the “synergistic effect … for NOD2” value in assay [7] is given as “synergistic effect”. For the same compound, the “recognition of S. aureus conditioned/spent media (activation of κB-LUC THP-1 cells)” value in [8] is listed as “significantly enhanced”.
